The record followed here is patent publication US9504251B2, “Pesticidal compositions and related methods” (Dow AgroSciences LLC, priority 2014, dated 2016).

Experiment [1] has as its system Sweetpotato Whitefly-crawler (Bemisia tabaci) (WF) (BEMITA). The experiment is described as follows: Sweetpotato whitefly-crawler (WF) foliar spray assay on cotton plants. The following applies: 216 h, 200 ppm foliar spray on cotton plants, graded after 9 days, Abbott-corrected % control, disclosed compounds (TABLE 2), read-out: WF % Control (or Mortality) rating. The format is in vivo. The method, then:
Foliar spray assay for WF was prepared as follows: Cotton plants (Gossypium hirsutum) grown in 3-inch pots, with 1 small (4-5 cm) true leaf, were used as test substrate. The plants were infested with 200-400 whitefly eggs 4-5 days prior to chemical application. Four pots with individual plants were used for each treatment. Tested compounds (2 mg) were dissolved in 1 mL of acetone solvent, forming stock solutions of 2000 ppm tested compound.
The stock solutions were diluted ten times with 0.025% TWEEN® 20 surfactant in H2O (diluents) to obtain the solution at 200 ppm tested compound. A hand-held aspirator-type sprayer was used for spraying the solution to both sides of cotton leaves until runoff. The control plants (solvent check) were sprayed with the diluent only containing 10% by volume of acetone solvent. Treated plants were held in a holding room for 9 days at approximately 25° C. and ambient relative humidity (RH) prior to grading. Evaluation was conducted by counting the number of live 3-4 nymph stage per plant under a microscope. Percent control was measured by using Abbott's correction formula (W. S. Abbott, “A Method of Computing the Effectiveness of an Insecticide,” J. Econ. Entomol. 18 (1925), pp. 265-267) as follows. Corrected % Control=100*(X−Y)/X
X=No. of live nymphs on solvent check plants and
Y=No. of live nymphs on treated plants.
(§1) The comparative compounds were tested for insecticidal activities against GPA and WF pests using the same test protocols described above for the disclosed compounds.

For experiment [2], the system named is Green Peach Aphid (Myzus persicae) (GPA) (MYZUPE). The experiment is described as follows: Green peach aphid (GPA) foliar spray bioassay on cabbage seedlings. Conditions: 72 h, 200 ppm foliar spray on cabbage seedlings, graded after three days, Abbott-corrected % control, disclosed compounds (TABLE 2), read-out: GPA % Control (or Mortality) rating. It is filed as in vivo. The method, then:
Bioassay for GPA was prepared as follows: Cabbage seedlings grown in 3-inch pots, with 2-3 small (3-5 cm) true leaves, were used as test substrate. The seedlings were infested with 20-50 GPA (adult and nymph stages) one day prior to chemical application. Four pots with individual seedlings were used for each treatment. The tested compounds (2 mg) were dissolved in 2 mL of acetone/methanol (1:1) solvent to form stock solutions of 1000 ppm tested compound. The stock solutions were diluted five times with an aqueous solution containing 0.025% TWEEN® 20 surfactant, which is polyoxyethylene (20) sorbitan monolaurate, to obtain the solution at 200 ppm tested compound. A hand-held aspirator-type sprayer was used for spraying the solution to both sides of cabbage leaves until runoff. The control plants (solvent check) were sprayed with the diluent only containing 20% by volume of acetone/methanol (1:1) solvent. Treated plants were held in a holding room for three days at approximately 25° C. and ambient relative humidity (RH) prior to grading. Evaluation was conducted by counting the number of live aphids per plant under a microscope. Percent control was measured by using Abbott's correction formula (W. S. Abbott, “A Method of Computing the Effectiveness of an Insecticide,” J. Econ. Entomol. 18 (1925), pp. 265-267) as follows. Corrected % Control=100*(X−Y)/X
X=No. of live aphids on solvent check plants and
Y=No. of live aphids on treated plants
as §1

In the case of `O=C(CN1CCc2nn(-c3cccnc3)cc2C1=O)N1CCN(C2CCC2)CC1` [Compound F42, 5-[2-(4-Cyclobutylpiperazin-1-yl)-2-oxo-ethyl]-2-(3-pyridyl)-6,7-dihydropyrazolo[4,3-c]pyridin-4-one], the mortality at 200 ppm in experiment [1] and in experiment [2] was 80 to 100% each time.

With `O=C1c2cn(-c3cccnc3)nc2CCN1c1ccccn1` [Compound F43, 5-(pyridin-2-yl)-2-(pyridin-3-yl)-6,7-dihydro-2H-pyrazolo[4,3-c]pyridin-4(5H)-one], the results for the mortality at 200 ppm in experiment [1] and in experiment [2] were 0 to 80% and 80 to 100%, respectively.

`O=C1c2cn(-c3cccnc3)nc2CCN1c1cccc(C(F)(F)F)n1` [Compound F46, 2-(3-Pyridyl)-5-[6-(trifluoromethyl)-2-pyridyl]-6,7-dihydropyrazolo[4,3-c]pyridin-4-one]: the mortality at 200 ppm lay in the range of 0 to 80% in experiment [1] and 80 to 100% in experiment [2].

For `O=C1c2cn(-c3cccnc3)nc2CCN1c1cc(C(F)(F)F)ncn1` [Compound F48, 2-(3-Pyridyl)-5-[6-(trifluoromethyl)pyrimidin-4-yl]-6,7-dihydropyrazolo[4,3-c]pyridin-4-one], the mortality at 200 ppm was 0 to 80% in experiment [1] and 80 to 100% in experiment [2].

Take `O=C1c2cn(-c3cccnc3)nc2CCN1c1ccc(F)cn1` [Compound F49, 5-(5-Fluoro-2-pyridyl)-2-(3-pyridyl)-6,7-dihydropyrazolo[4,3-c]pyridin-4-one]: the values for the mortality at 200 ppm in experiment [1] and in experiment [2] were 0 to 80% and 80 to 100%, respectively.

With `O=C1c2cn(-c3cccnc3)nc2CCN1Cc1ccc(C(F)(F)F)cc1` [Compound F50, 2-(3-Pyridyl)-5-[[4-(trifluoromethyl)phenyl]methyl]-6,7-dihydropyrazolo[4,3-c]pyridine-4-one], the mortality at 200 ppm was in the range of 0 to 80% in experiment [1] and 80 to 100% in experiment [2].

On to `CS(=O)(=O)CN1CCc2nn(-c3cccnc3)cc2C1=O` [Compound F51, 5-((methylsulfonyl)methyl)-2-(pyridin-3-yl)-6,7-dihydro-2H-pyrazolo[4,3-c]pyridin-4(5H)-one], for which the mortality at 200 ppm in experiment [1] and in experiment [2] was 80 to 100% in each case.

With `O=C(CN1CCc2nn(-c3cccnc3)cc2C1=O)c1ccccc1` [Compound P18, 5-(2-oxo-2-phenylethyl)-2-(pyridin-3-yl)-2,5,6,7-tetrahydro-4H-pyrazolo[4,3-c]pyridin-4-one], the mortality at 200 ppm in experiment [1] and in experiment [2] was 80 to 100% in each case.
